Results reported in US10676438B2, “KCNQ2-5 channel activator” (Ono Pharmaceutical Co., Ltd., priority 2014, dated 2020).
pEC50: −log10 of the molar value. ≈ marks a conversion by molar mass, not a printed value.

Tests used:
Human KCNQ2/3 channel = Human KCNQ2/3 channel (Homo sapiens (Human), UniProt O43525+O43526); assay: Opening action with respect to KCNQ2/3 channel by depolarization stimulation (thallium influx, FLIPR); format: cell-based; conditions: concentration giving 50% of maximum reaction of retigabine (10 μM); human KCNQ2/3 expression CHO-DHFR- cells; 5 mM potassium and 0.5 mM thallium; read-out: KCNQ2/3 ECrtg50
Description: Human KCNQ2/3 expression cells (CHO-DHFR-cells) were seeded in each well of 384 well plate (collagen-coated, black, clear bottom) at 0.5×10^4 cells/50 μL per well, and cultured in a MEM ALPHA medium (containing 10 vol % inactivated (56° C., 30 min) Fetal Bovine Serum and 100 IU/mL Penicillin—100 μg/mL Streptomycin—2 mM L-Glutamine) at 37° C. in 5% CO2 for 18 to 24 hours. The medium in the plate was removed. Then, incubation (room temperature, 60 minutes, light-shielded) was carried out in a loading buffer (prepared by the method described in the manual of FluxOR Thallium Detection Kit (Invitrogen, F10016, F10017)). KCNQ2/3 channel opening action (thallium influx into cells) by the depolarization stimulation (5 mM potassium and 0.5 mM thallium) was measured by FLIPR TETRA (Molecular Devices). The compound of the present invention had been treated five minutes before the depolarization stimulation, and the reaction induced by the depolarization stimulation was measured over time for 180 seconds. The channel opening action of the compound of the present invention was evaluated based on the change amount of the fluorescence intensity from the time before the depolarization stimulation to the time after the passage of 180 seconds. Thus, the concentration (ECrtg50) satisfying 50% of the fluorescence intensity change of maximum reaction (at the time of 10 μM-treatment) of retigabine under this experiment condition was calculated.

[1] = system: urinary bladder extracted from rat; assay: Relaxing action on urinary bladder extracted from rat (rat Magnus test); conditions: concentration at which tension change rate is -20%; carbachol 1 μM-induced contraction of rat urinary bladder strips
Description: Female Jcl Wistar rats (CLEA Japan, Inc., body weight in use: 170 to 200 g) were anesthetized by intraperitoneal administration of about 40 mg/kg of pentobarbital (Somnopentyl, Schering Plough Animal Health Corporation), and killed by bloodletting, followed by abdominal incision to extract the urinary bladder. Immediately, the extracted urinary bladder was immersed in ice-cooled Krebs buffer (Krebs Ringer bicarbonate buffer (Sigma-Aldlich Co.) containing sodium hydrogencarbonate (final concentration: 15 mM) and calcium chloride (final concentration: 2.5 mM)) which had been saturated with a mixed gas (95% O2, 5% CO2).
The urinary bladder bodies were cut in the longitudinal direction to prepare strip specimens (about 10×3 mm) on ice. Immediately, the prepared specimens were suspended in a Magnus tube with 500 mg of tension loaded. The tube was filled with Krebs buffer (37° C.) aerated with a mixed gas. Note here that specimens were prepared within 24 hours after extraction of the tissue.
When one hour or more had passed after the specimen was suspended, 2.5M KCl was added so that the final concentration became 100 mM, specimens showing contraction reaction were used.
Carbachol (a contraction-inducing substance) at the concentration of contraction of 1 μM was used to induce contraction. […] After the contraction reaction was stabilized, a physiological salt solution or the compound of the present invention was added in a cumulative manner from low concentration such that the final concentration became 1, 10, 100 nM, 1 and 10 μM.
The tension (mg) of the extracted urinary bladder was employed as an evaluation parameter. The tension was read by using analysis software WAVE THERMO 1000. Tension after addition of the contraction-inducing substance was set to 0%. The change rate of the tension after addition of the compound of the present invention relative to the tension after addition of the contraction-inducing substance was defined as tension change rate (%). The tension change rate (%) was adopted as an evaluation indicator. The tension change rate (%) is calculated from the following formula. Tension change rate (%)={Tension after addition of compound of the present invention and the like (mg)−Tension before addition of contraction-inducing substance (mg)}/{Tension after addition of contraction-inducing substance (mg)−Tension before addition of contraction-inducing substance (mg)}×100−100
The value at which the tension change rate (%) was −20% was calculated as IC20, and the value was adopted as an indicator of the relaxing action of the extracted urinary bladder.

[2] = Solubility test (DMSO precipitation method, Pharmacopoeia of Japan elution test second solution); format: physicochemical; conditions: aqueous buffer, kinetic from dmso stock; Pharmacopoeia of Japan elution test second solution pH=6.8, room temperature, five hours; quantitation range 5 to 100 μM
Description: A calibration curve solution was prepared by diluting a test substance (10 mM DMSO solution) with acetonitrile and adding acetonitrile including an internal standard substance (candesartan) so as to be 0.1, 0.4, and 2 μM.
Sample solution was prepared as follows: 5 μL of the compound of the present invention (10 mM DMSO solution) was added to 495 μL of the Pharmacopoeia of Japan elution test second solution (pH=6.8), and the resulting mixture was stirred at room temperature for five hours. Then, the solution was placed into a solubility filter plate and subjected to suction filtration. The filtrate (20 μL) was diluted with acetonitrile, followed by adding acetonitrile including an internal standard substance ([…]).
The calibration curve and sample solutions in the amount of 5 μL were infused into LC-MS/MS (Discovery Max manufactured by Thermo Scientific) and subjected to quantitation (quantitation range: 5 to 100 μM).

[3] = Evaluation of stability in human liver microsome; format: in vitro ADME; conditions: 5 μmol/L
Description: A test compound (10 mmol/L DMSO solution, 5 μL) was diluted with 50% acetonitrile aqueous solution (195 μL) to prepare 0.25 mmol/L solution.
To a reactor vessel which had been warmed to 37° C. in advance, 0.5 mg/mL of human liver microsome (Xenotech) and 245 μL of 0.1 M phosphate buffer solution (pH 7.4) including NADPH-Co-factor (BD Biosciences) were added, followed by preincubation for five minutes. Then, the above-mentioned test compound solution (5 μL) was added so as to start reaction (final concentration: 5 μmol/L). Immediately after the start, 20 μL was harvested and added to 180 μL of acetonitrile including an internal standard substance (warfarin) to stop the reaction. This solution (20 μL) was stirred with 180 μL of 50% acetonitrile aqueous solution on a plate equipped with a deproteinization filter. Then, the resulting mixture solution was subjected to suction filtration. The filtrate was adopted as a standard sample.
The above-mentioned reaction solution was incubated at 37° C. for 15 minutes, and 20 μL of the solution was added to 180 μL of cooled acetonitrile (including warfarin that is an internal standard substance) to stop the reaction. This solution (20 μL) was stirred with 180 μL of 50% acetonitrile aqueous solution on a plate equipped with a deproteinization filter, and then the resulting mixture solution was subjected to suction filtration. The filtrate was adopted as a reaction sample.
Residual rate (%) was obtained as follows: 1 μL of the sample solution was infused into LC-MS/MS (Discovery Max manufactured by Thermo Scientific), and a quotient obtained by dividing a peak area ratio of the reaction sample (peak area of test compound/peak area of internal standard substance) was divided by the peak area ratio of the standard sample was multiplied by 100.

With `C[C@@](O)(c1cc(Cl)c(NC(=O)NCc2nc(C(F)(F)F)no2)c(Cl)c1)C(F)(F)F` [Example 23, 1-{2,6-dichloro-4-[(2R)-1,1,1-trifluoro-2-hydroxy-2-propanyl]phenyl}-3-{[3-(trifluoromethyl)-1,2,4-oxadiazole-5-yl]methyl}urea] the pEC50 (Human KCNQ2/3 channel) was 8.00, the IC20 [1] was 100 nM and the solubility at 5 h [2] was 46 µM (≈ 21.5 µg/mL). The Residual rate ([3]; human liver microsome 0.5 mg/mL, NADPH, 37° C., 15 minutes) was 100%.
Compound `O=C(NCc1nc(C(F)(F)F)no1)Nc1c(Cl)cc([C@@H](O)C(F)(F)F)cc1Cl` [Example 32 (1), 1-{2,6-dichloro-4-[(1R)-2,2,2-trifluoro-1-hydroxyethyl]phenyl}-3-{[3-(trifluoromethyl)-1,2,4-oxadiazole-5-yl]methyl}urea] has a pEC50 (Human KCNQ2/3 channel) of 8.15, an IC20 [1] of 20 nM and a solubility at 5 h [2] of 100 µM (≈ 45.3 µg/mL).
With `O=C(NCc1nc(C(F)(F)F)no1)Nc1c(Cl)cc([C@H](O)C(F)(F)F)cc1Cl` [Example 35 (1), 1-{2,6-dichloro-4-[(1S)-2,2,2-trifluoro-1-hydroxyethyl]phenyl}-3-{[3-(trifluoromethyl)-1,2,4-oxadiazole-5-yl]methyl}urea] the pEC50 (Human KCNQ2/3 channel) was 8.10, the IC20 [1] was 20 nM and the solubility at 5 h [2] was 100 µM (≈ 45.3 µg/mL). The Residual rate ([3]; human, 15 min, pH 7.4) was 100%.
With `CC(O)(c1cc(Cl)c(NC(=O)NCc2cc3cc(F)ccc3[nH]2)c(Cl)c1)C(F)(F)F` (stereo not shown) [Example 5 (13), 1-[2,6-dichloro-4-(1,1,1-trifluoro-2-hydroxy-2-propanyl)phenyl]-3-[(5-fluoro-1H-indole-2-yl)methyl]urea] the pEC50 (Human KCNQ2/3 channel) was 6.22, the solubility at 5 h [2] was 81 µM (≈ 37.6 µg/mL) and the Residual rate ([3]; human, 15 min, pH 7.4) was 75%.
With `C[C@@](O)(c1cc(Cl)c(NC(=O)NCc2ccc(C#N)cc2)c(Cl)c1)C(F)(F)F` [Example 22 (15), 1-(4-cyanobenzyl)-3-{2,6-dichloro-4-[(2R)-1,1,1-trifluoro-2-hydroxy-2-propanyl]phenyl}urea] the pEC50 (Human KCNQ2/3 channel) was 6.70 and the Residual rate ([3]; human, 15 min, pH 7.4) was 93%.
With `CC(O)(c1cc(Cl)c(NC(=O)NCCC(F)(F)F)c(Cl)c1)C(F)(F)F` (stereo not shown) [Example 5 (19), 1-[2,6-dichloro-4-(1,1,1-trifluoro-2-hydroxy-2-propanyl)phenyl]-3-(3,3,3-trifluoropropyl)urea] the pEC50 (Human KCNQ2/3 channel) was 7.00, the solubility at 5 h [2] was 76 µM (≈ 31.4 µg/mL) and the Residual rate ([3]; human, 15 min, pH 7.4) was 100%.
`C[C@@](O)(c1cc(Cl)c(NC(=O)NCc2ccc(Oc3ccc(F)cc3)cc2)c(Cl)c1)C(F)(F)F` [Example 22 (16), 1-{2,6-dichloro-4-[(2R)-1,1,1-trifluoro-2-hydroxy-2-propanyl]phenyl}-3-[4-(4-fluorophenoxyl)benzyl]urea] gave a pEC50 (Human KCNQ2/3 channel) of 8.40 and a Residual rate ([3]; human, 15 min, pH 7.4) of 94%.
With `Cc1cc(C(O)C(F)(F)F)ccc1NC(=O)NCc1ccc(C(F)(F)F)cn1` (stereo not shown) [Example 60, 1-[2-methyl-4-(2,2,2-trifluoro-1-hydroxyethyl)phenyl]-3-{[5-(trifluoromethyl)-2-pyridinyl]methyl}urea] the pEC50 (Human KCNQ2/3 channel) was 5.77 and the Residual rate ([3]; human, 15 min, pH 7.4) was 98%.
Compound `C[C@@H](NC(=O)Nc1c(Cl)cc(C(C)(O)C(F)(F)F)cc1Cl)C1CC1` (stereo partly drawn) [Example 5 (20), 1-[(1R)-1-cyclopropylethyl]-3-[2,6-dichloro-4-(1,1,1-trifluoro-2-hydroxy-2-propanyl)phenyl]urea] has a pEC50 (Human KCNQ2/3 channel) of 6.30, a solubility at 5 h [2] of 100 µM (≈ 38.5 µg/mL) and a Residual rate ([3]; human, 15 min, pH 7.4) of 91%.
Work on `C[C@](O)(c1cc(Cl)c(NC(=O)NCc2ccc(OCC(F)(F)F)nc2)c(Cl)c1)C(F)(F)F` [Example 25 (6), 1-{2,6-dichloro-4-[(2S)-1,1,1-trifluoro-2-hydroxy-2-propanyl]phenyl}-3-{[6-(2,2,2-trifluoroethoxy)-3-pyridinyl]methyl}urea] yielded a pEC50 (Human KCNQ2/3 channel) of 7.22, a solubility at 5 h [2] of 40 µM (≈ 20.2 µg/mL) and a Residual rate ([3]; human, 15 min, pH 7.4) of 73%.
With `CC(O)(c1cc(Cl)c(NC(=O)NC[C@@H]2CCCO2)c(Cl)c1)C(F)(F)F` (stereo partly drawn) [Example 5 (15), 1-[2,6-dichloro-4-(1,1,1-trifluoro-2-hydroxy-2-propanyl)phenyl]-3-[(2S)-tetrahydro-2-furanylmethyl]urea] the pEC50 (Human KCNQ2/3 channel) was 5.64, the solubility at 5 h [2] was 90 µM (≈ 36.1 µg/mL) and the Residual rate ([3]; human, 15 min, pH 7.4) was 97%.
In the case of `CC(O)(c1cc(Cl)c(NC(=O)NCC2(O)CCC(F)(F)CC2)c(Cl)c1)C(F)(F)F` (stereo not shown) [Example 5 (6), 1-[2,6-dichloro-4-(1,1,1-trifluoro-2-hydroxy-2-propanyl)phenyl]-3-[(4,4-difluoro-1-hydroxycyclohexyl)methyl]urea], the pEC50 (Human KCNQ2/3 channel) was 6.40 and the solubility at 5 h [2] was 94 µM (≈ 43.7 µg/mL).
`CC(O)(c1cc(Cl)c(NC(=O)NCc2ncccc2C(F)(F)F)c(Cl)c1)C(F)(F)F` (stereo not shown) [Example 5 (9), 1-[2,6-dichloro-4-(1,1,1-trifluoro-2-hydroxy-2-propanyl)phenyl]-3-{[3-(trifluoromethyl)-2-pyridinyl]methyl}urea] showed a pEC50 (Human KCNQ2/3 channel) of 6.52 and a solubility at 5 h [2] of 91 µM (≈ 43.3 µg/mL).
In the case of `CC(O)(c1cc(Cl)c(NC(=O)NCc2ncc(C(F)(F)F)cn2)c(Cl)c1F)C(F)(F)F` (stereo not shown) [Example 43 (1), 1-[2,6-dichloro-3-fluoro-4-(1,1,1-trifluoro-2-hydroxy-2-propanyl)phenyl]-3-{[5-(trifluoromethyl)-2-pyrimidinyl]methyl}urea], the pEC50 (Human KCNQ2/3 channel) was 6.40 and the solubility at 5 h [2] was 89 µM (≈ 44.1 µg/mL).
`CC(O)(c1cc(Cl)c(NC(=O)NCc2ccc(C(F)(F)F)cn2)c(Cl)c1)C(F)F` (stereo not shown) [Example 75, 1-[2,6-dichloro-4-(1,1-difluoro-2-hydroxy-2-propanyl)phenyl]-3-{[5-(trifluoromethyl)-2-pyridinyl]methyl}urea] gave a pEC50 (Human KCNQ2/3 channel) of 6.40 and a Residual rate ([3]; human, 15 min, pH 7.4) of 100%.
